As a reminder, the MIC is the lowest concentration that inhibits growth of the organism. A low value points to a more susceptible organism.

Results on six compounds are retold here after ChEMBL document CHEMBL5523689, “Synthesis and antimicrobial studies of cadasides analogues via on-resin esterification” (2024).

Common to all, as to format: functional
One test relates to Pseudomonas aeruginosa. As to the kind of experiment: Antibacterial activity against Pseudomonas aeruginosa ATCC27853 by broth microdilution method. Background: In broth dilution the organism is exposed to a series of concentrations in liquid medium.
In test [1] the test system is Staphylococcus aureus. As to the kind of experiment: Antibacterial activity against methicillin-resistant Staphylococcus aureus ATCC43300 by broth microdilution method.
The subject of a further test is Escherichia coli. Put plainly: Antibacterial activity against Escherichia coli ATCC25922 by broth microdilution method.
The test system of another test is Bacillus pumilus. Put plainly: Antibacterial activity against Bacillus pumilus ATCC63202 by broth microdilution method.
In test [2] the test system is Staphylococcus aureus. As to the kind of experiment: Antibacterial activity against […] Staphylococcus aureus ATCC25923 by broth microdilution method.

Structures are written as SMILES.

Consider `CCCCCCCCCC(=O)N[C@@H](Cc1c[nH]c2ccccc12)C(=O)N[C@H](CC(N)=O)C(=O)N[C@@H](CC(=O)O)C(=O)N[C@@H]1C(=O)NCC(=O)N[C@@H](CCCN)C(=O)N[C@@H](CC(=O)O)C(=O)N[C@H](C)C(=O)N[C@@H](CC(=O)O)C(=O)NCC(=O)N[C@H](CO)C(=O)N[C@@H]([C@H](C)CC(=O)O)C(=O)N[C@@H](CC(=O)c2ccccc2N)C(=O)O[C@@H]1C`, for which the minimum inhibitory concentration (MIC) in the test on Pseudomonas aeruginosa, against Staphylococcus aureus [1], against Escherichia coli, in the test with Bacillus pumilus and with Staphylococcus aureus [2] was ≤ 5 µg/mL in each case.
For `CCCCCCCCC(=O)NC[C@@H](C)C(=O)NCC(=O)N[C@H](CCC(=O)O)C(=O)N[C@@H](Cc1ccc(O)cc1)C(=O)N[C@@H]1C(=O)N[C@H]([C@H](C)CC)C(=O)N[C@@H](CC(=O)O)C(=O)N[C@@H]([C@@H](O)C(=O)OC)C(=O)N2CCC[C@H]2C(=O)NCC(=O)N[C@H](CCC(=O)O)C(=O)N[C@@H](CCC(=O)O)C(=O)N(C)CC(=O)O[C@@H]1C`, the MIC in the test on Pseudomonas aeruginosa, against Staphylococcus aureus [1], against Escherichia coli, against Bacillus pumilus and with Staphylococcus aureus [2] was ≥ 128 µg/mL in each case.
As to `CCCCCCCCCC(=O)NC[C@@H](C)C(=O)NCC(=O)N[C@H](CCC(=O)O)C(=O)N[C@@H](Cc1ccc(O)cc1)C(=O)N[C@@H]1C(=O)N[C@H]([C@H](C)CC)C(=O)N[C@@H](CC(=O)O)C(=O)N[C@@H]([C@@H](O)C(=O)O)C(=O)N2CCC[C@H]2C(=O)NCC(=O)N[C@H](CCC(=O)O)C(=O)N[C@@H](CCC(=O)O)C(=O)N(C)CC(=O)O[C@@H]1C`, the MIC in the test with Pseudomonas aeruginosa, in the test with Staphylococcus aureus [1], in the test on Escherichia coli, against Bacillus pumilus and against Staphylococcus aureus [2] was ≥ 128 µg/mL throughout.
For `CCCCCCCCC(=O)NC[C@@H](C)C(=O)NCC(=O)N[C@H](CCC(=O)O)C(=O)N[C@@H](Cc1ccc(O)cc1)C(=O)N[C@@H]1C(=O)N[C@H]([C@H](C)CC)C(=O)N[C@@H](CC(=O)O)C(=O)N[C@@H]([C@@H](O)C(=O)O)C(=O)N2CCC[C@H]2C(=O)NCC(=O)N[C@H](CCC(=O)O)C(=O)N[C@@H](CCC(=O)O)C(=O)N(C)CC(=O)O[C@@H]1C`, the minimum inhibitory concentration (MIC) in the test on Pseudomonas aeruginosa, against Staphylococcus aureus [1], against Escherichia coli, in the test on Bacillus pumilus and against Staphylococcus aureus [2] was ≥ 128 µg/mL throughout.
`CCCCCCCCCC(=O)NC[C@@H](C)C(=O)NCC(=O)N[C@H](CCC(=O)O)C(=O)N[C@@H](Cc1ccc(O)cc1)C(=O)N[C@@H]1C(=O)N[C@H]([C@H](C)CC)C(=O)N[C@@H](CC(=O)O)C(=O)N[C@@H]([C@@H](O)C(=O)OC)C(=O)N2CCC[C@H]2C(=O)NCC(=O)N[C@H](CCC(=O)O)C(=O)N[C@@H](CCC(=O)O)C(=O)N(C)CC(=O)O[C@@H]1C`: the MIC in the test with Pseudomonas aeruginosa, in the test with Staphylococcus aureus [1], with Escherichia coli, in the test with Bacillus pumilus and with Staphylococcus aureus [2] was ≥ 128 µg/mL throughout.
In the case of `CCCCCCCC(=O)NC[C@@H](C)C(=O)NCC(=O)N[C@H](CCC(=O)O)C(=O)N[C@@H](Cc1ccc(O)cc1)C(=O)N[C@@H]1C(=O)N[C@H]([C@H](C)CC)C(=O)N[C@@H](CC(=O)O)C(=O)N[C@@H](CC(=O)O)C(=O)N2CCC[C@H]2C(=O)NCC(=O)N[C@H](CCC(=O)O)C(=O)N[C@@H](CCC(=O)O)C(=O)N(C)CC(=O)O[C@@H]1C`, the minimum inhibitory concentration (MIC) against Pseudomonas aeruginosa, with Staphylococcus aureus [1], against Escherichia coli, in the test on Bacillus pumilus and against Staphylococcus aureus [2] was ≥ 128 µg/mL throughout.
